How the values were obtained:
MelBSt [1] = target: MelBSt (Salmonella enterica, UniProt P30878, R295C); settings: RSO vesicles solubilized with MNG-3, 10 μM D^2G, 20 mM NaCl
MelBEc [2] = target: T1, MelBEc (Escherichia coli, UniProt P02921); assay: Trp→D^2G FRET, displacement of bound D^2G; format: binding; settings: read-out: RSO membrane vesicles, 10 μM D^2G, 20 mM NaCl, KPi pH 7.5
MelBEc [3] = target: T1, MelBEc; assay: isothermal titration calorimetry; format: binding; settings: purified in 0.01% MNG-3, 20 mM Tris-HCl pH 7.5, 100 mM NaCl, 10% glycerol, 25 °C
MelBSt [4] = target: T2, MelBSt (Salmonella enterica, UniProt P30878); assay: Trp→D^2G FRET, displacement of bound D^2G; format: binding; settings: read-out: RSO membrane vesicles, 10 μM D^2G, 20 mM NaCl, KPi pH 7.5
MelBSt [5] = target: T2, MelBSt; assay: isothermal titration calorimetry; format: binding; settings: purified in 0.01% MNG-3, 20 mM Tris-HCl pH 7.5, 100 mM NaCl, 10% glycerol, 25 °C
[6] = target: WT melibiose permease of Escherichia coli (MelBEc) (Escherichia coli, UniProt P02921 1-473); assay: ITC
[7] = target: R141C mutant of the melibiose permease of Salmonella typhimurium (R141C MelBSt) (Salmonella typhimurium, UniProt P30878 1-476, R141C); assay: ITC

T1 sequence (P02921 2-473): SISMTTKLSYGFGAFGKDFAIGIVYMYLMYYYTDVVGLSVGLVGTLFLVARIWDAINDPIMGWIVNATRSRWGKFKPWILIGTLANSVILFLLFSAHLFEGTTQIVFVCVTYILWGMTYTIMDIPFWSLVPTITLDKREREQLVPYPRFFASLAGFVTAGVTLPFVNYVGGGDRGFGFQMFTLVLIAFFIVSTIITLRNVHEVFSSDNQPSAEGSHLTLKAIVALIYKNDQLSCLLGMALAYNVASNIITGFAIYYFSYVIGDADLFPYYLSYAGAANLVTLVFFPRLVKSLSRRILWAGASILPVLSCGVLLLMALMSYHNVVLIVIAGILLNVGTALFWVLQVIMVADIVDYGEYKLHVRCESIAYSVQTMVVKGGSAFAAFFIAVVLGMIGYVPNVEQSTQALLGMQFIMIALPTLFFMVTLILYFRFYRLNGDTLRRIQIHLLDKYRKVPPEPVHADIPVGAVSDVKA

Molecule | IC50 (MelBSt [1]) | IC50 (MelBEc [2]) | Kd (MelBEc [3]) | IC50 (MelBSt [4]) | Kd (MelBSt [5]) | binding result [6] | Kd [7]
OC[C@H]1O[C@H](OC[C@H]2OC(O)[C@H](O)[C@@H](O)[C@@H]2O)[C@H](O)[C@@H](O)[C@H]1O (stereo partly shown) [melibiose] | 5490 ± 830 µM | 660 ± 160 µM | 1280 ± 60 µM | 2420 ± 220 µM | 2510 ± 130 µM | – | –
phosphotransferase protein IIA^Glc of E. coli (natural protein, UniProt P69783 1-169, looked up) MGLFDKLKSLVSDDKKDTGTIEIIAPLSGEIVNIEDVPDVVFAEKIVGDGIAIKPTGNKMVAPVDGTIGKIFETNHAFSIESDSGVELFVHFGIDTVELKGEGFKRIAEEGQRVKVGDTVIEFDLPLLEEKAKSTLTPVVISNMDEIKELIKLSGSVTVGETPVIRIKK | – | – | – | – | – | binds | 2 µM
